Test results as given in US9238656B2, “Imidazo[4,5-b]pyridine derivatives as ALK and JAK modulators for the treatment of proliferative disorders” (priority 2012, dated 2016).

Columns and labels:
[1] = molecular target: baculovirus-expressed ALK (Homo sapiens, UniProt Q9UM73); experiment: ALK kinase inhibition, TRF/ELISA; type: biochemical; conditions: read-out: ALK Potency
Method: Briefly, each 96-well plate was coated with 100 μL/well of 10 μg/mL substrate (GST-PLC-γ) in Tris-buffered saline (TBS). […] The reaction was initiated by adding enzyme (30 ng/mL ALK) and was allowed to proceed at 37° C. for 15 minutes. Detection of the phosphorylated product was performed by adding 100 μL/well of Eu-N1 labeled PT66 antibody (Perkin Elmer #AD0041). […] Data analysis was performed using ActivityBase (IDBS, Guilford, UK). IC50 values were calculated by plotting percent inhibition versus log10 of the concentration of compound and fitting to the nonlinear regression sigmoidal dose-response (variable slope) equation in XLFit (IDBS, Guilford, UK).

[2] = molecular target: baculovirus-expressed JAK2 kinase (Homo sapiens, UniProt O60674); experiment: biochemical; conditions: 0.2 μM ATP; read-out: JAK2 Potency
Chain of baculovirus-expressed JAK2 kinase (O60674 whole entry): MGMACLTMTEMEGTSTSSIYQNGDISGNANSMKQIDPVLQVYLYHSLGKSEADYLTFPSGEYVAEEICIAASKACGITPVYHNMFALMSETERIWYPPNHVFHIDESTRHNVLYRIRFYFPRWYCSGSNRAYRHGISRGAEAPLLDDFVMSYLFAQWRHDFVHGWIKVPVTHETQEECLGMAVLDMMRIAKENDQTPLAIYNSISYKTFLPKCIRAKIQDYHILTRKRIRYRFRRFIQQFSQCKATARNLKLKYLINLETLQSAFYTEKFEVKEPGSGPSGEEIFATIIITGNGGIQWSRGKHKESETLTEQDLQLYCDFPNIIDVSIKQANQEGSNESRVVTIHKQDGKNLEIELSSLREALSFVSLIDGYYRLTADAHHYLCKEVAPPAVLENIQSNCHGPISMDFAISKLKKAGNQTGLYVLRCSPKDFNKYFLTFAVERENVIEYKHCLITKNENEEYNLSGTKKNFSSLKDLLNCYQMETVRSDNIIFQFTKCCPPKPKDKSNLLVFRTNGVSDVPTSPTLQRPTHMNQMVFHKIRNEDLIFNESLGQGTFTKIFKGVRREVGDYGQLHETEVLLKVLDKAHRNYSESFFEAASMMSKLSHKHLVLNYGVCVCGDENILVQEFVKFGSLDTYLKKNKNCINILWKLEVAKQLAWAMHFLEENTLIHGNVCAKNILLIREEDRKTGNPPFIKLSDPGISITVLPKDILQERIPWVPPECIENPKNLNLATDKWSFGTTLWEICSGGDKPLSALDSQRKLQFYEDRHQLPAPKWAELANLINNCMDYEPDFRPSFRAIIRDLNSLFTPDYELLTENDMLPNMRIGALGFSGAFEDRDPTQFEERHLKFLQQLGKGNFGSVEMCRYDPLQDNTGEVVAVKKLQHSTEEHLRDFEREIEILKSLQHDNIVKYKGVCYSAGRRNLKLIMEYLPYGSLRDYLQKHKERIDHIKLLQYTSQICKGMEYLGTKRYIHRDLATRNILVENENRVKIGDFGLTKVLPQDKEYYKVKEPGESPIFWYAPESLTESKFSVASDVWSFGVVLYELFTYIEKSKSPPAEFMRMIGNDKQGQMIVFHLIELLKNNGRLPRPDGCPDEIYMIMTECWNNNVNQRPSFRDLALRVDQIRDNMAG
Method: Compounds were tested for their ability to inhibit the kinase activity of baculovirus-expressed JAK2 kinase using the time-resolved fluorescence (TRF) detection system. […] The plates were coated with 100 μL/well of 10 μg/mL Neutravidin (Pierce #31000, Rockford, Ill.) in TBS at 37° C. for 2 h, followed by 100 μL/well of 1 μg/mL 15-mer peptide substrate (biotinyl-amino-hexanoyl-[…]-amide, Infinity Biotech Research and Resource, Aston, Pa.) at 37° C. for 1 h. […] Enzyme (15 ng/mL JAK2) was added and the reaction was allowed to proceed at room temperature for 20 min. […] Inhibition data were analyzed using ActivityBase (IDBS, Guilford, UK). IC50 values were calculated by plotting percent inhibition versus log10 of the concentration of compound and fitting to the nonlinear regression sigmoidal dose-response (variable slope) equation in XLFit (IDBS, Guilford, UK).

Chain of baculovirus-expressed ALK (Q9UM73 19-1620): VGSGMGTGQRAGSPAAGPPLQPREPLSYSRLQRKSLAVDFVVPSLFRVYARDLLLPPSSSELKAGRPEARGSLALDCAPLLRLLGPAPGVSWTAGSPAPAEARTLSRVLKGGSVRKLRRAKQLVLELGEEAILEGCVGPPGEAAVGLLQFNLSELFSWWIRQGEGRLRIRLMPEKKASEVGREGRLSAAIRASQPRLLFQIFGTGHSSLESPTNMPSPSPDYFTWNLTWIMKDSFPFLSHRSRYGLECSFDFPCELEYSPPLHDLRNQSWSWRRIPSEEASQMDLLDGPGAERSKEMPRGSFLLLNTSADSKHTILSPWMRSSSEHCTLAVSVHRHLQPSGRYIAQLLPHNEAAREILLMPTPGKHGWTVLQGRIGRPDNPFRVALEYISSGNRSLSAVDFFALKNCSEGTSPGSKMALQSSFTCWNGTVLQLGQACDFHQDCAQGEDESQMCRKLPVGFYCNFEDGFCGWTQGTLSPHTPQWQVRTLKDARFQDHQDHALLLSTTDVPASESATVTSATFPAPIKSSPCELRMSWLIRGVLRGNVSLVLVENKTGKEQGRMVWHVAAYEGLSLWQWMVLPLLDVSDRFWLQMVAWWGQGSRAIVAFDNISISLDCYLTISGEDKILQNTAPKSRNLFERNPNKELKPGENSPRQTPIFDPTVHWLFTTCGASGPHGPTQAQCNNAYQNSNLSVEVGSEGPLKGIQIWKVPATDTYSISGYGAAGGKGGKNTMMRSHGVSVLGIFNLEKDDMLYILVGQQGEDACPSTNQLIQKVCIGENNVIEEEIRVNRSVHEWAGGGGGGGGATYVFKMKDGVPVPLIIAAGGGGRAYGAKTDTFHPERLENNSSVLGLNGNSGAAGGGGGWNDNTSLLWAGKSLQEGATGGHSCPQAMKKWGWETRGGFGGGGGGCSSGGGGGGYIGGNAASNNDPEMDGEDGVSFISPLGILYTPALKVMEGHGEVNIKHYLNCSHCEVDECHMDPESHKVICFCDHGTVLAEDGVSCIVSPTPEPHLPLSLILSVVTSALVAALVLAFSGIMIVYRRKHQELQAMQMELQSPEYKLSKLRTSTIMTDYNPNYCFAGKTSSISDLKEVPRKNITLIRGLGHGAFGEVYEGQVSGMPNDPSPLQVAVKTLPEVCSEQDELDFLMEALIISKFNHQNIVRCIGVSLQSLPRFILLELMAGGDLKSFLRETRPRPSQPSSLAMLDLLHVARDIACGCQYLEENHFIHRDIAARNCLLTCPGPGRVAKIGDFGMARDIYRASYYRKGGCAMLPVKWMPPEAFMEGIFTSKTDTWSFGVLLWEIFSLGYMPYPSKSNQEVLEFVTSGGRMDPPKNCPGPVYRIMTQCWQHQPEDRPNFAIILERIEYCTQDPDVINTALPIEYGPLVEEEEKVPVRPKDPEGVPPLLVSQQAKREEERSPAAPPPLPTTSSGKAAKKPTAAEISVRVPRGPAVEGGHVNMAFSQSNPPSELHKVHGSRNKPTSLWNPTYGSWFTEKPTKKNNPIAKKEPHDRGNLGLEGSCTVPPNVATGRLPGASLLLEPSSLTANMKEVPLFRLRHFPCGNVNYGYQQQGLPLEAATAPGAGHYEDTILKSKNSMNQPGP

SMILES	IC50 [1] [nM]	IC50 [2] [nM]
CC(O)CN1CCN(C(=O)COc2ccc(-c3nc4c(N[C@H]5[C@@H](C(N)=O)[C@@H]6C=C[C@H]5C6)c(Cl)cnc4[nH]3)cc2)CC1 (stereo partly drawn) [Compound CCXLII, (1S,2S,3R,4R)-3-(6-chloro-2-(4-(2-(4-(2-hydroxypropyl)piperazin-1-yl)-2-oxoethoxy)phenyl)-3H-imidazo[4,5-b]pyridin-7-ylamino)bicyclo[2.2.1]hept-5-ene-2-carboxamide]	< 100	< 100
N#Cc1cccc(-c2nc3c(N[C@H]4[C@@H](C(N)=O)[C@@H]5C=C[C@H]4C5)c(Br)cnc3[nH]2)c1 [Compound CXLVI, (1S,2S,3R,4R)-3-[6-Bromo-2-(3-cyano-phenyl)-3H-imidazo[4,5-b]pyridin-7-ylamino]-bicyclo[2.2.1]hept-5-ene-2-carboxylic acid amide]	100 to 1000	< 100
Cn1cc(-c2nc3c(N[C@H]4[C@@H](C(N)=O)[C@@H]5CC[C@H]4O5)c(Cl)cnc3[nH]2)cn1 [Compound CCV, (1S,2R,3S,4R)-3-(6-chloro-2-(1-methyl-1H-pyrazol-4-yl)-3H-imidazo[4,5-b]pyridin-7-ylamino)-7-oxabicyclo[2.2.1]heptane-2-carboxamide]	> 10000	100 to 1000
COc1cc(CN2CC[C@@H](O)C2)ccc1-c1nc2c(N[C@@H]3CCCC[C@H]3NS(C)(=O)=O)c(Cl)cnc2[nH]1 [Compound LXXV, N-((1R,2R)-2-{6-Chloro-2-[4-((R)-3-hydroxy-pyrrolidin-1-ylmethyl)-2-methoxy-phenyl]-3H-imidazo[4,5-b]pyridine-7-ylamino}-cyclohexyl)-methanesulfonamide]	< 100	1000 to 10000
O=C(NC1CC1)[C@@H]1[C@H](Nc2c(Cl)cnc3[nH]c(-c4sc(N5CC[C@@H](O)C5)nc4Cl)nc23)[C@H]2C=C[C@@H]1C2 [Compound CLXXIII, (1S,2S,3R,4R)-3-[6-Chloro-2-[4-chloro-2-((R)-3-hydroxy-pyrrolidin-1-yl)-thiazol-5-yl]-3H-imidazo[4,5-b]pyridin-7-ylamino]-bicyclo[2.2.1]hept-5-ene-2-carboxylic acid cyclopropylamide]	< 100	100 to 1000
NC(=O)COc1cccc(-c2nc3c(N[C@H]4[C@@H](C(N)=O)[C@@H]5C=C[C@H]4C5)c(Cl)cnc3[nH]2)c1 [Compound CCXXXVIII, (1S,2S,3R,4R)-3-(2-(3-(2-amino-2-oxoethoxy)phenyl)-6-chloro-3H-imidazo[4,5-b]pyridin-7-ylamino)bicyclo[2.2.1]hept-5-ene-2-carboxamide]	100 to 1000	< 100
COc1cc(C2CCN(C[C@H](C)O)CC2)ccc1-c1nc2c(N[C@H]3[C@@H](C(N)=O)[C@@H]4C=C[C@H]3C4)c(Cl)cnc2[nH]1 [Compound XLV, (1S,2S,3R,4R)-3-(6-Chloro-2-{4-[1-((S)-2-hydroxypropyl)-piperidin-4-yl]-2-methoxyphenyl}-3H-imidazo[4,5-b]pyridine-7-ylamino)-bicyclo[2.2.1]hept-5-ene-2-carboxylic acid amide]	< 100	< 100
CC(C)(C)OC(=O)N1CCC(n2cc(-c3nc4c(N[C@H]5[C@@H](C(N)=O)[C@@H]6C=C[C@H]5C6)c(Cl)cnc4[nH]3)cn2)CC1 [Compound L, 4-{4-[7-((1R,2R,3S,4S)-3-Carbamoyl-bicyclo[2.2.1]hept-5-en-2-ylamino)-6-chloro-3H-imidazo[4,5-b]pyridine-2-yl]-pyrazol-1-yl}-piperidine-1-carboxylic acid tert-butyl ester]	100 to 1000	< 100
CC(=O)N1CCN(Cc2ccc(-c3nc4c(N[C@H]5[C@@H](C(N)=O)[C@@H]6C=C[C@H]5C6)c(Br)cnc4[nH]3)cc2)CC1 [Compound CLVI, (1S,2S,3R,4R)-3-{2-[4-(4-Acetyl-piperazin-1-ylmethyl)-phenyl]-6-bromo-3H-imidazo[4,5-b]pyridin-7-ylamino}-bicyclo[2.2.1]hept-5-ene-2-carboxylic acid amide]	< 100	< 100
CC(=O)N1CCN(Cc2ccc(-c3nc4c(N[C@H]5[C@@H](C(N)=O)[C@@H]6C=C[C@H]5C6)c(Cl)cnc4[nH]3)cc2)CC1 [Compound CLVII, (1S,2S,3R,4R)-3-{2-[4-(4-Acetyl-piperazin-1-ylmethyl)-phenyl]-6-chloro-3H-imidazo[4,5-b]pyridin-7-ylamino}-bicyclo[2.2.1]hept-5-ene-2-carboxylic acid amide]	< 100	< 100
COc1cc(N2CCOCC2)ccc1-c1nc2c(N3C[C@@H]4C[C@H]3CN4C[C@H](C)O)c(Cl)cnc2[nH]1 [Compound XXXIX, (S)-1-[(1S,4S)-5-[6-Chloro-2-(methoxy-4-morpholin-4-yl-phenyl)-3H-imidazo[4,5-b]pyridine-7-yl]-2,5-diaza-bicyclo[2.2.1]hept-2-yl]-propan-2-ol]	> 10000	> 10000
NC(=O)[C@@H]1[C@H](Nc2c(Cl)cnc3[nH]c(-c4cnc(N5CCOCC5)s4)nc23)[C@H]2C=C[C@@H]1C2 [Compound CCX, (1S,2S,3R,4R)-3-(6-chloro-2-(2-morpholinothiazol-5-yl)-3H-imidazo[4,5-b]pyridin-7-ylamino)bicyclo[2.2.1]hept-5-ene-2-carboxamide]	< 100	< 100
Cc1nn(C)c(N2CCOCC2)c1-c1nc2c(N[C@H]3[C@@H](C(N)=O)[C@@H]4C=C[C@H]3C4)c(Cl)cnc2[nH]1 [Compound CXXII, (1S,2S,3R,4R)-3-[6-Chloro-2-(1,3-dimethyl-5-morpholin-4-yl-1H-pyrazol-4-yl)-3H-imidazo[4,5-b]pyridin-7-ylamino]-bicyclo[2.2.1]hept-5-ene-2-carboxylic acid amide]	1000 to 10000	1000 to 10000
COc1cccc(-c2nc3c(N[C@H]4[C@@H](C(N)=O)[C@@H]5C=C[C@H]4C5)c(Cl)cnc3[nH]2)n1 [Compound CXXIV, (1S,2S,3R,4R)-3-[6-Chloro-2-(6-methoxy-pyridin-2-yl)-3H-imidazo[4,5-b]pyridin-7-ylamino]-bicyclo[2.2.1]hept-5-ene-2-carboxylic acid amide]	< 100	< 100
O=C(NC1CC1)[C@@H]1[C@H](Nc2c(Cl)cnc3[nH]c(-c4sc(N5CCCC5)nc4Cl)nc23)[C@H]2C=C[C@@H]1C2 [Compound CLXXII, (1S,2S,3R,4R)-3-[6-Chloro-2-(4-chloro-2-pyrrolidin-1-yl-thiazol-5-yl)-3H-imidazo[4,5-b]pyridin-7-ylamino]-bicyclo[2.2.1]hept-5-ene-2-carboxylic acid cyclopropylamide]	< 100	100 to 1000
Cc1nn(C)c(C)c1-c1nc2c(N[C@H]3[C@@H](C(N)=O)[C@@H]4C=C[C@H]3C4)c(Br)cnc2[nH]1 [Compound CLII, (1S,2S,3R,4R)-3-[6-Bromo-2-(1,3,5-trimethyl-1H-pyrazol-4-yl)-3H-imidazo[4,5-b]pyridin-7-ylamino]-bicyclo[2.2.1]hept-5-ene-2-carboxylic acid amide]	< 100	< 100
CN(C)c1cccc(-c2nc3c(N[C@@H]4[C@H](C(N)=O)[C@H]5C=C[C@@H]4C5)c(Cl)cnc3[nH]2)c1 [Compound XXIV, (1R,2R,3S,4S)-3-[6-Chloro-2-(3-dimethylamino-phenyl)-3H-imidazo[4,5-b]pyridine-7-ylamino]-bicyclo[2.2.1]hept-5-ene-2-carboxylic acid amide]	> 10000	100 to 1000
NC(=O)[C@@H]1[C@H](Nc2c(Cl)cnc3[nH]c(-c4ccc(Cl)cc4)nc23)[C@H]2C=C[C@@H]1C2 [Compound CXLI, (1S,2S,3R,4R)-3-[6-Chloro-2-(4-chloro-phenyl)-3H-imidazo[4,5-b]pyridin-7-ylamino]-bicyclo[2.2.1]hept-5-ene-2-carboxylic acid amide]	100 to 1000	< 100
NC(=O)COc1ccc(-c2nc3c(N[C@H]4[C@@H](C(N)=O)[C@@H]5C=C[C@H]4C5)c(Cl)cnc3[nH]2)cc1 [Compound CCXL, (1S,2S,3R,4R)-3-(2-(4-(2-amino-2-oxoethoxy)phenyl)-6-chloro-3H-imidazo[4,5-b]pyridin-7-ylamino)bicyclo[2.2.1]hept-5-ene-2-carboxamide]	100 to 1000	< 100
COc1cc(CN2CCOCC2)ccc1Nc1nc2c(N[C@H]3[C@@H](C(N)=O)[C@@H]4C=C[C@H]3C4)c(Cl)cnc2[nH]1 [Compound LXIX, (1S,2S,3R,4R)-3-[6-Chloro-2-(2-methoxy-4-morpholin-4-ylmethyl-phenylamino)-3H-imidazo[4,5-b]pyridine-7-ylamino]-bicyclo[2.2.1]hept-5-ene-2-carboxylic acid amide]	< 100	< 100
COc1ccc(-c2nc3c(N[C@H]4[C@@H](C(N)=O)[C@@H]5C=C[C@H]4C5)c(Cl)cnc3[nH]2)c(C2CCN(C[C@H](C)O)CC2)c1 [Compound XXXII, (1S,2S,3R,4R)-3-(6-Chloro-2-{2-[1-((S)-2-hydroxypropyl)-piperidin-4-yl]-4-methoxy-phenyl}-3H-imidazo[4,5-b]pyridin-7-ylamino)-bicyclo[2.2.1]hept-5-ene-2-carboxylic acid amide]	1000 to 10000	1000 to 10000
